Like-named read-outs stand apart in the source and are kept apart here.
Tests used:
MycN = target: T1, MycN (Homo sapiens, UniProt P04198); test: Degradation of MycN protein in SK-N-BE(2) cells (JESS/Western blot); type: cell-based; settings: for Dmax at 1 µM: read-out: % Degradation of MycN (SKNBE2) 24 h, 1 μM; for Dmax at 3 µM: read-out: % Degradation of MycN (SKNBE2) 24 h, 3 μM; for Dmax at 6 µM: read-out: % Degradation of MycN (SKNBE2) 24 h, 6 μM; for Dmax at 0.5 µM: read-out: % Degradation of MycN (SKNBE2) 24 h, 0.5 μM
T1 construct: endogenous in cells; host or cells: SK-N-BE(2)
T1 sequence (P04198 1-464): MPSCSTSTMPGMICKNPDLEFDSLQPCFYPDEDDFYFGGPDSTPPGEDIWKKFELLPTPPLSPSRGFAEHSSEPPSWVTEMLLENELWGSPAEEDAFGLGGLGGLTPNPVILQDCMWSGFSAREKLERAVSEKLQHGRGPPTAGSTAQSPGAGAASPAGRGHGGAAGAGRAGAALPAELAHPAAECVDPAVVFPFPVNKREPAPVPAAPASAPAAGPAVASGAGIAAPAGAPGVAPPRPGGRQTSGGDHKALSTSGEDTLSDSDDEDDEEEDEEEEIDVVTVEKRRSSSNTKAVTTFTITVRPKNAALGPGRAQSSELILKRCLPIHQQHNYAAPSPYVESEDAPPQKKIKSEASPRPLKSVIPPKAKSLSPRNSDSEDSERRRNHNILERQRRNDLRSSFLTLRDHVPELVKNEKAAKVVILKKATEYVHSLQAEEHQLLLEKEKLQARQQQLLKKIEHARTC
Procedure: (§1) For L363 cells (suspension), 1E6 cells were plated into each well of a 6 well plate. For SK—N-BE(2) cells (adherent), 5E5 cells were plated into each well of a 6 well dish. […] All compounds were diluted to 10 mM in DMSO. Cells were treated with the compound for 24 hrs, then for both cell types, media containing cells were removed from wells into a 15 ml centrifuge tube, and remaining adherent SK—N-BE(2) cells were also scraped from the wells into the appropriate tubes. Tubes were centrifuged, cells were washed with PBS then re-centrifuged to pellet cells. A RIPA buffer cocktail was added to the cells on ice for 5 mins. Cell lysates were clarified by centrifugation and stored at −80 degrees until required. BCA assay was performed on each lysate to determine the protein concentration. For validation studies of antibodies, lysates and antibodies were used at a number of concentrations (Lysates: 2, 1, 0.2 mg/ml; Antibodies: 1 in 50, 1 in 200 dilution). Once an appropriate lysate concentration and antibody concentration was determined, samples were screened in the JESS technology (Protein Simple, San Jose, CA—https://www.proteinsimple.com/jess.html). Target protein antibodies (n-myc and c-myc) were detected in the chemiluminescence channel and loading controls (tubulin and GAPDH) were detected using a Near Infra Red (NIR) labeled secondary antibody. For SK—N-EB2 adherent cells, 5E5 cells in 1.9 mls media were plated into 6 well dishes and incubated for 24 hrs. […] Cells were scrapped off the plate, centrifuged, washed with PBS, centrifuged, then a RIPA buffer cocktail added to the cells (100 ul), centrifuged and stored at −80 for later analysis. For L363 suspension cells, 1E6 cells were plated into 24 well dishes (950 ul media) and incubated for 24 hrs. […] Cells were aspirated into tubes, centrifuged, washed with PBS, centrifuged, then a RIPA buffer cocktail added to the cells (100 ul), centrifuged and stored at −80 for later analysis. For Western blot, a BCA (total protein) assay was run on all samples, these were then run in batches of 5 compounds plus control (DMSO) on each Western blot run—n-myc and c-myc were run in separate experiments in the chemiluminescence channel. Both tubulin and GAPDH were run as loading controls in all lanes in the near infra red channel.

MycC = target: T2, MycC (Homo sapiens, UniProt P01106); test: Degradation of MycC protein in L363 cells (JESS/Western blot); type: cell-based; settings: L-363 cells, 24 h; for Dmax at 0.5 µM: read-out: % Degradation of MycC (L-363) 24 h, 0.5 μM; for Dmax at 1 µM: read-out: % Degradation of MycC (L-363) 24 h, 1 μM; for Dmax at 3 µM: read-out: % Degradation of MycC (L-363) 24 h, 3 μM; for Dmax at 6 µM: read-out: % Degradation of MycC (L-363) 24 h, 6 μM
T2 construct: endogenous in cells; host or cells: L363
Procedure: as §1

T2 sequence (P01106 whole entry): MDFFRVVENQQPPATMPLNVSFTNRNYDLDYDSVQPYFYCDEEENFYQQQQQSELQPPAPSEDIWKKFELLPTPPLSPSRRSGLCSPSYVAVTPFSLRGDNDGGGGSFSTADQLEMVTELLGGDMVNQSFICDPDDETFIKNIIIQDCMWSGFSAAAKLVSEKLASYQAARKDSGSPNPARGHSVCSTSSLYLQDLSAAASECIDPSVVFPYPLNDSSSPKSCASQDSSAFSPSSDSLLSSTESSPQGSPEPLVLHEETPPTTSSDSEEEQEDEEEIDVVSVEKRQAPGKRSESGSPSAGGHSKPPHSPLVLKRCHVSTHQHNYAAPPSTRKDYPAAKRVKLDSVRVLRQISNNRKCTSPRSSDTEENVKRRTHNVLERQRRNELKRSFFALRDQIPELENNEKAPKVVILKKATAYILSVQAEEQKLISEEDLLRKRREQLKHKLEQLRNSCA

Structure (SMILES) | Dmax at 1 µM (MycN; SKNBE2 cells, 24 h, 1 μM) | Dmax at 3 µM (MycN; SKNBE2 cells, 24 h, 3 μM) | Dmax at 6 µM (MycN; SKNBE2 cells, 24 h, 6 μM) | Dmax at 0.5 µM (MycN; SKNBE2 cells, 24 h, 0.5 μM) | Dmax at 0.5 µM (MycC) | Dmax at 1 µM (MycC) | Dmax at 3 µM (MycC) | Dmax at 6 µM (MycC) | Dmax at 0.5 µM (MycN; SKNBE2, 24 h) | Dmax at 1 µM (MycN; SKNBE2, 24 h) | Dmax at 3 µM (MycN; SKNBE2, 24 h) | Dmax at 6 µM (MycN; SKNBE2, 24 h)
CN1CCC(CNc2nccc(Nc3cc(C4CCCC4)[nH]n3)n2)CC1 [Compound 1] | < 20% | 20 to 49% | 80 to 100% | 20 to 49% | – | – | < 20% | < 20% | – | – | – | –
c1cc(Nc2cc(C3CC3)[nH]n2)nc(NC2CCC3(CC2)CNC3)n1 [Compound 33, N^4-(5-Cyclopropyl-1H-pyrazol-3-yl)-N^2-(2-azaspiro[3.5]nonan-7-yl)pyrimidine-2,4-diamine] | 20 to 49% | 80 to 100% | 80 to 100% | 20 to 49% | – | < 20% | 20 to 49% | 80 to 100% | – | – | – | –
CN(CC12CNC(C1)C2)c1nccc(Nc2cc(C3CC3)[nH]n2)n1 [Compound 2, N^2-((2-Azabicyclo[2.1.1]hexan-4-yl)methyl)-N^4-(5-cyclopropyl-1H-pyrazol-3-yl)-N^2-methylpyrimidine-2,4-diamine] | < 20% | 20 to 49% | 50 to 79% | 20 to 49% | – | – | – | – | – | – | – | –
CN1CC2(CCC(Nc3nccc(Nc4cc(C5CC5)[nH]n4)n3)CC2)C1 [Compound 34, N^4-(5-cyclopropyl-1H-pyrazol-3-yl)-N^2-(2-methyl-2-azaspiro[3.5]nonan-7-yl)pyrimidine-2,4-diamine] | 80 to 100% | 80 to 100% | 80 to 100% | 80 to 100% | < 20% | 50 to 79% | 80 to 100% | 80 to 100% | – | – | – | –
CN1CC2(CC(Nc3nccc(Nc4cc(C5CC5)[nH]n4)n3)C2)C1 [Compound 36, N^4-(5-cyclopropyl-1H-pyrazol-3-yl)-N^2-(2-methyl-2-azaspiro[3.3]heptan-6-yl)pyrimidine-2,4-diamine] | < 20% | 20 to 49% | 80 to 100% | < 20% | 20 to 49% | 50 to 79% | 20 to 49% | 50 to 79% | – | – | – | –
CN1CC2(CNc3nccc(Nc4cc(C5CC5)[nH]n4)n3)CC1C2 [Compound 4, N^4-(5-Cyclopropyl-1H-pyrazol-3-yl)-N^2-((2-methyl-2-azabicyclo[2.1.1]hexan-4-yl)methyl)pyrimidine-2,4-diamine] | – | < 20% | 20 to 49% | – | – | < 20% | 20 to 49% | < 20% | – | – | – | –
c1cc(Nc2cc(C3CC3)[nH]n2)nc(NC2CCNCC2)n1 [Compound 29] | < 20% | 80 to 100% | 80 to 100% | – | 50 to 79% | 80 to 100% | 80 to 100% | 80 to 100% | – | – | – | –
c1cc(Nc2cc(C3CCCC3)[nH]n2)nc(NC2CCNCC2)n1 [Compound 32, N^4-(5-cyclopentyl-1H-pyrazol-3-yl)-N^2-(piperidin-4-yl)pyrimidine-2,4-diamine] | 50 to 79% | 80 to 100% | 80 to 100% | – | 50 to 79% | 50 to 79% | 80 to 100% | 80 to 100% | – | – | – | –
c1cc(Nc2cc(C3CC3)[nH]n2)nc(NCC23CNC(C2)C3)n1 [Compound 3, N^2-((2-Azabicyclo[2.1.1]hexan-4-yl)methyl)-N^4-(5-cyclopropyl-1H-pyrazol-3-yl)pyrimidine-2,4-diamine] | – | – | – | – | – | – | – | – | < 20% | < 20% | < 20% | 20 to 49%

Now from value to compound, other results behind:

Dmax at 1 µM (MycN; SKNBE2 cells, 24 h, 1 μM) | Dmax at 3 µM (MycN; SKNBE2 cells, 24 h, 3 μM) | Dmax at 6 µM (MycN; SKNBE2 cells, 24 h, 6 μM) | Dmax at 0.5 µM (MycN; SKNBE2 cells, 24 h, 0.5 μM) | Dmax at 0.5 µM (MycC) | Dmax at 1 µM (MycC) | Dmax at 3 µM (MycC) | Dmax at 6 µM (MycC) | Structure (SMILES) | Dmax at 0.5 µM (MycN; SKNBE2, 24 h) | Dmax at 1 µM (MycN; SKNBE2, 24 h) | Dmax at 3 µM (MycN; SKNBE2, 24 h) | Dmax at 6 µM (MycN; SKNBE2, 24 h)
20 to 49% | 20 to 49% | 50 to 79% | – | – | – | – | – | CN1CC[C@@H](Nc2nccc(Nc3cc(C4CC4)[nH]n3)n2)[C@@H](F)C1 [Compound 42, N4-(5-Cyclopropyl-1H-pyrazol-3-yl)-N2-[(3S,4R)-3-fluoro-1-methyl-4-piperidyl]pyrimidine-2,4-diamine] | – | – | – | –
< 20% | 80 to 100% | 80 to 100% | 20 to 49% | 20 to 49% | 20 to 49% | 20 to 49% | 80 to 100% | Cn1cc(C(=O)N2CC3(CC(Nc4nccc(Nc5cc(C6CCCC6)[nH]n5)n4)C3)C2)nn1 [Compound 39, (6-((4-((5-Cyclopentyl-1H-pyrazol-3-yl)amino)pyrimidin-2-yl)amino)-2-azaspiro[3.3]heptan-2-yl)(1-methyl-1H-1,2,3-triazol-4-yl)methanone] | – | – | – | –
50 to 79% | 80 to 100% | 80 to 100% | 20 to 49% | 20 to 49% | 50 to 79% | 20 to 49% | 50 to 79% | CN1CC2(CC(Nc3nccc(Nc4cc(C5CCCC5)[nH]n4)n3)C2)C1 [Compound 38, N^4-(5-cyclopentyl-1H-pyrazol-3-yl)-N^2-(2-methyl-2-azaspiro[3.3]heptan-6-yl)pyrimidine-2,4-diamine] | – | – | – | –
< 20% | 20 to 49% | 20 to 49% | – | – | – | 20 to 49% | < 20% | Cn1cc(C(=O)N2CCC(Nc3nccc(Nc4cc(C5CC5)[nH]n4)n3)CC2)nn1 [Compound 37, (4-((4-((5-Cyclopropyl-1H-pyrazol-3-yl)amino)pyrimidin-2-yl)amino)piperidin-1-yl)(1-methyl-1H-1,2,3-triazol-4-yl)methanone] | – | – | – | –
< 20% | 20 to 49% | 20 to 49% | 20 to 49% | – | – | < 20% | < 20% | CN1CCC(C(=O)Nc2nccc(Nc3cc(C4CC4)[nH]n3)n2)CC1 [Compound 35, N-(4-((5-cyclopropyl-1H-pyrazol-3-yl)amino)pyrimidin-2-yl)-1-methylpiperidine-4-carboxamide] | – | – | – | –
80 to 100% | 80 to 100% | 80 to 100% | 50 to 79% | – | < 20% | 80 to 100% | 80 to 100% | c1cc(Nc2cc(C3CCCC3)[nH]n2)nc(NC2CCC3(CC2)CNC3)n1 [Compound 40, N^2-(2-Azaspiro[3.5]nonan-7-yl)-N^4-(5-cyclopentyl-1H-pyrazol-3-yl)pyrimidine-2,4-diamine] | – | – | – | –
80 to 100% | 80 to 100% | 80 to 100% | 50 to 79% | 50 to 79% | 80 to 100% | 80 to 100% | 80 to 100% | CN1CC2(CCC(N(C)c3nccc(Nc4cc(C5CC5)[nH]n4)n3)CC2)C1 [Compound 49, N4-(5-Cyclopropyl-1H-pyrazol-3-yl)-N2-methyl-N2-(2-methyl-2-azaspiro[3.5]nonan-7-yl)pyrimidine-2,4-diamine] | – | – | – | –
< 20% | 20 to 49% | 80 to 100% | < 20% | – | – | – | 80 to 100% | F[C@H]1CNCC[C@H]1Nc1nccc(Nc2cc(C3CC3)[nH]n2)n1 [Compound 41, N4-(5-Cyclopropyl-1H-pyrazol-3-yl)-N2-[(3S,4R)-3-fluoro-4-piperidyl]pyrimidine-2,4-diamine] | – | – | – | –

From patent publication US20250177393A1, “MODULATORS OF MYC FAMILY PROTO-ONCOGENE PROTEIN” (Nalo Therapeutics, priority 2022, published 2025)
